Like-named read-outs stand apart in the source and are kept apart here. Residues, ends and D or L forms follow the SMILES beside them. No end group written: not given here. *: point of attachment. NHhexadecyl = CCCCCCCCCCCCCCCCN*
Tests used:
[1] = test system: E. coli (ATCC25922); type: cell-based, Escherichia coli
Description: (§1) The MIC of arginine-based peptides was assessed using the microbroth dilution approach. Our in vitro screening included a panel of Gram-negative bacteria, Escherichia coli (ATCC 25922 and enterohaemorrhagic O157:H7) and Pseudomonas aeruginosa (PA01 and the drug-resistant strain NCTC 13437), and Gram-positive bacteria (Staphylococcus aureus ATCC 12600). Five-millilitre overnight cultures in Lysogeny broth, prepared from single isolated colonies, were diluted to 5×10^6 c.f.u. ml^−1 mid-log phase in Mueller–Hinton (MH) broth. Next, peptide concentrations (0 to 1 mM) were serially diluted twofold in 96-well plates and incubated overnight at 37 °C with the tested bacterial strains. In each case, the MIC was determined as the lowest peptide concentration at which no detectable bacterial growth was observed, employing an absorbance-based assay using a Tecan Spark® multimode plate reader. Subsequently, 10 µl aliquots from each peptide dilution were transferred to MH agar (1.5%) plates to determine the minimum bactericidal concentration (MBC) which was assessed by establishing at which concentration no visible growth of bacteria (assessed via colony formation) on the plate was observed.

[2] = test system: E. coli (O157:H7); type: cell-based, Escherichia coli; settings: for MBC: 10 µl aliquots plated on MH agar, no visible colonies; for MIC: MH broth, 5×10^6 cells, 24 h, 37 °C, absorbance 600 nm, triplicate
Description: as §1

[3] = test system: P. aeruginosa (PA01); type: cell-based, Pseudomonas aeruginosa; settings: for MIC: 24 h
Description: as §1

[4] = test system: S. aureus (ATCC12600); type: cell-based, Staphylococcus aureus
Description: as §1

[5] = test system: E. coli (25922); type: cell-based, Escherichia coli; settings: for MIC, Control: control without serum or trypsin; for MIC, Trypsin: peptide incubated with 5 µM SGMT trypsin in 50 mM Tris-HCl, 1 mM CaCl2, pH 7.6, 24 h at 37 °C before MIC; for MIC, 20% human serum: peptide incubated with 20% human serum 24 h at 37 °C before MIC; for MIC, 50% human serum: peptide incubated with 50% human serum 24 h at 37 °C before MIC
Description: as §1
(§2) The antimicrobial activity and structural stability of arginine-rich peptides were evaluated in the presence of human serum (20% and 50 %) and 5 µM Sequencing Grade Modified Trypsin (SGMT, Promega). Briefly, fresh human blood was collected in EDTA tubes and allowed to clot at room temperature for 1 h. Serum was then collected following centrifugation at 2,000 r.p.m. for 10 min at 4 °C. Peptides were incubated with 20%, 50% human serum and 5 µM SGMT in 50 mM Tris-HCl buffer (1 mM CaCl₂, pH 7.6) for 24 h at 37 °C. After the incubation period, the solutions were further incubated with E. coli (ATCC 25922 and O157:H7), P. aeruginosa (PA01, NCTC13437) and S. aureus (ATCC12600), and the MIC was assessed as described in the ‘Antibacterial assessment’ section. Additionally, the samples were analysed using electrospray ionization MS to monitor structural changes based on the molecular weight of the peptides.

[6] = test system: P. aeruginosa (PA01); type: cell-based, Pseudomonas aeruginosa; settings: for MIC, Control: control without serum or trypsin; for MIC, Trypsin: peptide incubated with 5 µM SGMT trypsin in 50 mM Tris-HCl, 1 mM CaCl2, pH 7.6, 24 h at 37 °C before MIC; for MIC, 20% human serum: peptide incubated with 20% human serum 24 h at 37 °C before MIC; for MIC, 50% human serum: peptide incubated with 50% human serum 24 h at 37 °C before MIC
Description: as §1, §2

[7] = test system: S. aureus (12600); type: cell-based, Staphylococcus aureus; settings: for MIC, Control: control without serum or trypsin; for MIC, Trypsin: peptide incubated with 5 µM SGMT trypsin in 50 mM Tris-HCl, 1 mM CaCl2, pH 7.6, 24 h at 37 °C before MIC; for MIC, 20% human serum: peptide incubated with 20% human serum 24 h at 37 °C before MIC; for MIC, 50% human serum: peptide incubated with 50% human serum 24 h at 37 °C before MIC
Description: as §1, §2

[8] = test system: P. aeruginosa (NCTC13437); type: cell-based, Pseudomonas aeruginosa; settings: P. aeruginosa NCTC13437 (drug-resistant); for MBC: 10 µl aliquots plated on MH agar, no visible colonies; for MIC: MH broth, 5×10^6 cells, 24 h, 37 °C, absorbance 600 nm, triplicate
Description: as §1

[9] = test system: E. coli; assay: Live/dead SYTO 9/PI fluorescence imaging; type: cell-based, Escherichia coli; settings: mid-log phase E. coli, 2× MIC; red = damaged membranes
[10] = test system: Gram-positive and Gram-negative bacteria; type: cell-based; settings: span of MIC and MBC against both Gram-positive and Gram-negative bacteria, Table 2
Description: as §1

[11] = test system: L929 fibroblasts; type: cell-based; settings: 24 h
Description: The toxicity screening of arginine-rich peptides was conducted in two cell types: human red blood cells (hRBCs) and L929 fibroblasts. The peptide-induced lysis of hRBCs was estimated based on the release of haemoglobin into solution, following a previously established protocol with slight modifications. Briefly, fresh human blood was collected from a healthy donor. To isolate hRBCs from plasma, the blood was centrifuged at 2,000 r.p.m. for 10 min at 4 °C, and the cells were carefully resuspended in 0.5% suspension buffer. After, they were added to a 96-well plate containing various concentrations of peptides diluted in PBS. After incubation for 1 h at 37 °C, cells were spun at 2,000 r.p.m. for 10 min at 4 °C to pellet cell debris and the supernatant collected and measured at OD414. The data was calculated as the % haemolysis relative to the positive control (cells treated with 1% Triton X-100). The toxicity screening using L929 fibroblasts was based on the metabolic activity of cells using an MTS colourimetric assay (Fig. S2). […] The absorbance was measured at OD490 using a Tecan Spark multimode plate reader. The quantification of viable cells was expressed as a % and determined by comparing peptide-treated groups with control cells grown in their absence. […]

[12] = test system: E. coli ATCC 25922; assay: Cytoplasmic membrane depolarization, DiSC3(5); type: cell-based, Escherichia coli; settings: peptide at 2× MIC or 1,000 µM, positive control Triton X-100
Description: The dye 3,3′-dipropylthiadicarbocyanine iodide DiSC3(5) was employed to evaluate perturbation of the bacterial membrane by our designed arginine-rich peptides. For this, a black 96-well microtiter plate containing 150 µl E. coli cells (OD600=0.5) in MH broth per well was incubated with 0.5 µM DiSC3(5) in 5 mM HEPES buffer (pH 7.4, supplemented with 5 mM glucose and 0.1 M KCl) for 15 min to allow for fluorescence quenching. Then, 2× MIC or 1 mM peptide was added, and changes in fluorescence were monitored in real-time (λex=622 nm, λem=670 nm) using a microplate reader.

[13] = target: T1, Sequencing Grade Modified Trypsin (Sus scrofa, UniProt P00761); assay: Stability with trypsin by LC-MS; type: in vitro ADME; settings: 5 µM SGMT trypsin, 50 mM Tris-HCl, 1 mM CaCl2, pH 7.6, 24 h, 37 °C; read-out LC-MS (ESI)
T1 construct: purchased Promega
T1 sequence (P00761 9-231): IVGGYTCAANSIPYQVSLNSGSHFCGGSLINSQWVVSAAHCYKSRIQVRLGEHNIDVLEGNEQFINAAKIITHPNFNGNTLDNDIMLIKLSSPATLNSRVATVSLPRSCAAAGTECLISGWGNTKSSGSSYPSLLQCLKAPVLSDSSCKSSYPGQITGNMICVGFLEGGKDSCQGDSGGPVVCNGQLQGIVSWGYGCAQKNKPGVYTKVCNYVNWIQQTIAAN
Description: as §2

[14] = E. coli ATCC25922, 10 µl aliquots plated on MH agar, no visible colonies
[15] = E. coli ATCC25922, MH broth, 5×10^6 cells, 24 h, 37 °C, absorbance 600 nm, triplicate
[16] = P. aeruginosa PA01, 10 µl aliquots plated on MH agar, no visible colonies
[17] = P. aeruginosa PA01, MH broth, 5×10^6 cells, 37 °C, absorbance 600 nm, triplicate
[18] = S. aureus ATCC12600, 10 µl aliquots plated on MH agar, no visible colonies
[19] = S. aureus ATCC12600, MH broth, 5×10^6 cells, 24 h, 37 °C, absorbance 600 nm, triplicate

Molecule | MBC [1, 14] | MIC [1, 15] | MBC [2] | MIC [2] | MBC [3, 16] | MIC [3, 17] | MBC [4, 18] | MIC [4, 19] | MIC, Control [5] | MIC, Trypsin [5] | MIC, 20% human serum [5] | MIC, 50% human serum [5] | MIC, Control [6] | MIC, Trypsin [6] | MIC, 20% human serum [6] | MIC, 50% human serum [6] | MIC, Control [7] | MIC, Trypsin [7] | MIC, 20% human serum [7] | MIC, 50% human serum [7] | also measured
RRRRAAAA [Peptide R4A4] | 1,000/>1,000 μM | 1,000/>1,000 μM | >1,000/>1,000 μM | >1,000/>1,000 μM | >1,000/>1,000 μM | >1,000/>1,000 μM | >1,000/>1,000 μM | >1,000/>1,000 μM | 1,000 μM | >1,000 μM | 1,000 μM | >1,000 μM | >1,000 μM | >1,000 μM | >1,000 μM | >1,000 μM | >1,000 μM | >1,000 μM | >1,000 μM | >1,000 μM | –
Polymyxin B [reference compound] | 4.8 µM | 2.8 µM | 4.8 µM | 4.8 µM | 4.8 µM | 2.4 µM | > 76.8 µM | > 76.8 µM | 2.8 µM | 2.4 µM | 2.8 µM | 2.4 µM | 2.4 µM | 2.4 µM | 2.4 µM | 2.4 µM | >76.8 µM | >76.8 µM | >76.8 µM | >76.8 µM | MBC [8]: 38.4 µM; MIC [8]: 9.6 µM; Membrane damage, live/dead SYTO 9/PI staining [9]: high presence of red-stained cells indicative of damaged membranes
CCCCCCCCCCCCCCCCNC(=O)[C@H](Cc1ccccc1)NC(=O)[C@H](Cc1ccccc1)NC(=O)[C@H](Cc1ccccc1)NC(=O)[C@H](Cc1ccccc1)NC(=O)[C@H](CCCNC(=N)N)NC(=O)[C@H](CCCNC(=N)N)NC(=O)[C@H](CCCNC(=N)N)NC(=O)[C@@H](N)CCCNC(=N)N [Peptide R4F4-C16] (H-RRRRFFFF-NHhexadecyl; N-terminus and C-terminus assumed) | 1,000/>1,000 μM | 1,000/>1,000 μM | >1,000/>1,000 μM | >1,000/>1,000 μM | >1,000/>1,000 μM | >1,000/>1,000 μM | >1,000/>1,000 μM | >1,000/>1,000 μM | 1,000 μM | >1,000 μM | 1,000 μM | >1,000 μM | >1,000 μM | >1,000 μM | >1,000 μM | >1,000 μM | >1,000 μM | >1,000 μM | >1,000 μM | >1,000 μM | MIC and MBC values over all tested strains [10]: > 1,000 µM; EC50 [11]: 70 µM; Cytoplasmic membrane depolarization, DiSC3(5) fluorescence [12]: Greater effects
RRRRFFFF [Peptide R4F4] | – | – | – | – | – | – | – | – | – | – | – | – | – | – | – | – | – | – | – | – | MBC [3]: 250 µM; MIC [3]: 125 µM; MBC ([4]; ATCC12600): 250 µM; MIC ([4]; ATCC12600, 24 h): 125 µM; Stability with trypsin (LC chromatogram and mass spectrum) [13]: degraded into smaller fragments; EC50 [11]: 481 µM
RRRRVVVV [Peptide R4V4] | 1,000/>1,000 μM | 1,000/>1,000 μM | 1,000/>1,000 μM | 1,000/>1,000 μM | >1,000/>1,000 μM | >1,000/>1,000 μM | >1,000/>1,000 μM | >1,000/>1,000 μM | 1,000 μM | >1,000 μM | 1,000 μM | >1,000 μM | >1,000 μM | >1,000 μM | >1,000 μM | >1,000 μM | >1,000 μM | >1,000 μM | >1,000 μM | >1,000 μM | –
PRRRRFFFF [PR4F4] | – | – | – | – | – | – | – | – | – | – | – | – | – | – | – | – | – | – | – | – | MBC ([1]; ATCC25922): 125 µM; MIC ([1]; ATCC25922, 24 h): 62.5 µM
RRARSAVAS [RRARSAVAS] | >1,000/>1,000 μM | >1,000/>1,000 μM | >1,000/>1,000 μM | >1,000/>1,000 μM | >1,000/>1,000 μM | >1,000/>1,000 μM | >1,000/>1,000 μM | >1,000/>1,000 μM | >1,000 μM | >1,000 μM | >1,000 μM | >1,000 μM | >1,000 μM | >1,000 μM | >1,000 μM | >1,000 μM | >1,000 μM | >1,000 μM | >1,000 μM | >1,000 μM | MBC [8]: >1,000/>1,000 μM; MIC [8]: >1,000/>1,000 μM

Reference: PMC12873548, “D-amino acid substitution and cyclization enhance the stability and antimicrobial activity of arginine-rich peptides” (Microbiology, 2026)
